Data: the supplement of paper PMC4862054
Several values for one entry are separate records, joined by “and”; a condition that tells them apart may be missing. Equal values may be shown once.

Assays:
Assay in all cases: normalised viability (% of control), CellTiter-Blue; higher = more viable cells (about 100 = DMSO control)
Conditions in all cases: incubation time: 72 h
[1] = tested on: HDQ-P1
Experimental: (§1)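 DSRT, CellTiter-Blue viability, 72 h incubation. Signal is normalised to DMSO and benzethonium chloride controls. Value is the normalised response at dose 6.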

[2] = tested on: CAL-51
Experimental: as §1

[3] = tested on: DU-4475
Experimental: as §1

[4] = tested on: CAL-85-1
Experimental: as §1

[5] = tested on: CAL-148
Experimental: as §1

[6] = tested on: MDA-MB-453
Experimental: as §1

[7] = tested on: HDQ-P1; remark: listed apart in the source
Experimental: (§2)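 DSRT, CellTiter-Blue viability, 72 h incubation. Signal is normalised to DMSO and benzethonium chloride controls. Value is the normalised response at dose 8.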

[8] = tested on: CAL-51; remark: listed apart in the source
Experimental: as §2

[9] = tested on: DU-4475; remark: listed apart in the source
Experimental: as §2

[10] = tested on: CAL-85-1; remark: listed apart in the source
Experimental: as §2

[11] = tested on: CAL-148; remark: listed apart in the source
Experimental: as §2

[12] = tested on: MDA-MB-453; remark: listed apart in the source
Experimental: as §2

[13] = tested on: CAL-51; remark: listed apart in the source
Experimental: (§3)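 DSRT, CellTiter-Blue viability, 72 h incubation. Signal is normalised to DMSO and benzethonium chloride controls. Value is the normalised response at dose 9.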

[14] = tested on: DU-4475; remark: listed apart in the source
Experimental: as §3

[15] = tested on: CAL-85-1; remark: listed apart in the source
Experimental: as §3

[16] = tested on: CAL-148; remark: listed apart in the source
Experimental: as §3

[17] = tested on: MDA-MB-453; remark: listed apart in the source
Experimental: as §3

Compound | normalised viability [1] | normalised viability [2] | normalised viability [3] | normalised viability [4] | normalised viability [5] | normalised viability [6] | normalised viability [7] | normalised viability [8] | normalised viability [9] | normalised viability [10] | normalised viability [11] | normalised viability [12] | normalised viability [13] | normalised viability [14] | normalised viability [15] | normalised viability [16] | normalised viability [17]
O=c1[nH]c(=O)n([C@H]2C[C@H](O)[C@@H](CO)O2)cc1F [Floxuridine] (300 nM) | 78.8% | 35% | 76% | 58.7% | 55.2% | 90.8% |  |  |  |  |  |  |  |  |  |  | 
O=C(c1ccc(OCCN2CCCCC2)cc1)c1c(-c2ccc(O)cc2)sc2cc(O)ccc12 [Raloxifene] (300 nM) | 84.6% | 100% | 114% | 105% | 102% | 102% |  |  |  |  |  |  |  |  |  |  | 
C[C@@H]1C=C2C(=O)O[C@@H]3CC[C@H](C1)[C@]23O [Galiellalactone] (1500 nM) | 65.4% | 106% | 98.1% | 100% | 138% | 103% |  |  |  |  |  |  |  |  |  |  | 
COC1=CC(c2cc3ccccc3[nH]2)=N/C1=C\c1[nH]c(C)cc1C [Obatoclax] (3000 nM) |  |  |  |  |  |  | 39.3% | 38.5% | 78.5% | 31.2% | 59.6% | 33.4% |  |  |  |  | 
COc1cc(Nc2ncc(F)c(Nc3ccc4c(n3)NC(=O)C(C)(C)O4)n2)cc(OC)c1OC [R406] (300 nM) | 102% | 114% | 87.5% | 98.3% | 108% | 109% |  |  |  |  |  |  |  |  |  |  | 
O=c1[nH]cc(F)c(=O)[nH]1 [Fluorouracil] (3000 nM) |  |  |  |  |  |  | 87.8% | 87.9% | 81.6% | 62.6% | 65.6% | 85.7% |  |  |  |  | 
CC(C)(C)c1cc(NC(=O)Nc2ccc(-c3cn4c(n3)sc3cc(OCCN5CCOCC5)ccc34)cc2)no1 [Quizartinib] (300 nM) |  |  |  |  |  |  | 103% | 102% | 98.5% | 106% | 102% | 110% |  |  |  |  | 
C#Cc1cccc(Nc2ncnc3cc(OC)c(OCCCCCCC(=O)NO)cc23)c1 [CUDC-101] (300 nM) | 38.8% | 105% | 75.1% | 64.1% | 81.9% | 46% |  |  |  |  |  |  |  |  |  |  | 
CS(=O)(=O)CCNCc1ccc(-c2ccc3ncnc(Nc4ccc(OCc5cccc(F)c5)c(Cl)c4)c3c2)o1 [Lapatinib] (3000 nM) |  |  |  |  |  |  | 84.5% and 104% | 107% and 96.5% | 117% and 105% | 52.1% and 54.6% | 80.7% and 87.1% | 33.4% and 38.4% |  |  |  |  | 
Cn1c(=O)c(F)c(Nc2ccc(I)cc2F)c2c(=O)n(C[C@@H](O)CO)cnc21 [TAK-733] (30 nM) | 77.7% | 89.7% | 1.81% | 84.5% | 98.7% | 112% |  |  |  |  |  |  |  |  |  |  | 
COC(=O)C[C@](O)(CCCC(C)(C)O)C(=O)O[C@@H]1C(OC)=C[C@]23CCCN2CCc2cc4c(cc2[C@H]13)OCO4 [Omacetaxine mepesuccinate] (300 nM) | 10.2% | 7.35% | 9.29% | 4.19% | 13.5% | 20.1% |  |  |  |  |  |  |  |  |  |  | 
CN1CCN(c2ccc3nc(-c4c(N)c5c(F)cccc5[nH]c4=O)[nH]c3c2)CC1 [Dovitinib] (300 nM) | 54.7% | 109% | 86.5% | 86.9% | 98.7% | 94.5% |  |  |  |  |  |  |  |  |  |  | 
c1ccc(C2CN3CCSC3=N2)cc1 (stereo unspecified) [Tetramisole] (300 nM) | 129% | 93.3% | 98.6% | 102% | 102% | 103% |  |  |  |  |  |  |  |  |  |  | 
CCS(=O)(=O)c1cccc(-c2cc(C(=O)NC3CCN(C)CC3)c(C)c3[nH]c4ncc(C)cc4c23)c1 [TAK-901] (30 nM) | 96.5% | 78.1% | 90.6% | 79.4% | 42.2% | 55.5% |  |  |  |  |  |  |  |  |  |  | 
C[C@@H]1C=C2C(=O)O[C@@H]3CC[C@H](C1)[C@]23O [Galiellalactone] (15000 nM) |  |  |  |  |  |  | 75.3% | 124% | 126% | 14.1% | 52.8% | 20.3% |  |  |  |  | 
CCCC(CCC)C(=O)O [Valproic acid] (3000 nM) |  |  |  |  |  |  | 112% | 103% | 88% | 90% | 104% | 103% |  |  |  |  | 
COC1=CC(c2cc3ccccc3[nH]2)=N/C1=C\c1[nH]c(C)cc1C [Obatoclax] (300 nM) | 40.7% | 95.7% | 75% | 66.2% | 91.1% | 72.2% |  |  |  |  |  |  |  |  |  |  | 
C[C@@]1(C(=O)Nc2ccc(F)nc2)CCCN1c1nc(Nc2cc(C3CC3)n[nH]2)c2cccn2n1 (3000 nM) |  |  |  |  |  |  | 25.6% | 31.4% | 14.8% | 38.1% | 42.9% | 65.4% |  |  |  |  | 
COc1cc(Nc2ncc(F)c(Nc3ccc4c(n3)NC(=O)C(C)(C)O4)n2)cc(OC)c1OC [R406] (3000 nM) |  |  |  |  |  |  | 98.3% | 109% | 92.6% | 67.9% | 105% | 110% |  |  |  |  | 

Compound | normalised viability [1] | normalised viability [2] | normalised viability [3] | normalised viability [4] | normalised viability [5] | normalised viability [6] | normalised viability [7] | normalised viability [8] | normalised viability [9] | normalised viability [10] | normalised viability [11] | normalised viability [12] | normalised viability [13] | normalised viability [14] | normalised viability [15] | normalised viability [16] | normalised viability [17]
C#Cc1cccc(Nc2ncnc3cc(OC)c(OCCCCCCC(=O)NO)cc23)c1 [CUDC-101] (3000 nM) |  |  |  |  |  |  | 41.6% | 68% | 35% | 4.33% | 11.9% | 4.71% |  |  |  |  | 
O=C(c1ccc(OCCN2CCCCC2)cc1)c1c(-c2ccc(O)cc2)sc2cc(O)ccc12 [Raloxifene] (3000 nM) |  |  |  |  |  |  | 89.1% | 101% | 121% | 94.3% | 109% | 91.9% |  |  |  |  | 
COc1ccc(C2=N[C@@H](c3ccc(Cl)cc3)[C@@H](c3ccc(Cl)cc3)N2C(=O)N2CCNC(=O)C2)c(OC(C)C)c1 [Nutlin-3] (3000 nM) |  |  |  |  |  |  | 120% | 73% | 67.5% | 101% | 72.6% | 83.9% |  |  |  |  | 
c1ccc(C2CN3CCSC3=N2)cc1 (stereo unspecified) [Tetramisole] (3000 nM) |  |  |  |  |  |  | 101% | 101% | 95.4% | 93.5% | 109% | 116% |  |  |  |  | 
COC(=O)C[C@](O)(CCCC(C)(C)O)C(=O)O[C@@H]1C(OC)=C[C@]23CCCN2CCc2cc4c(cc2[C@H]13)OCO4 [Omacetaxine mepesuccinate] (3000 nM) |  |  |  |  |  |  | 13.4% | 5.99% | 3.79% | 2% | 5.63% | 5.64% |  |  |  |  | 
O=c1[nH]c(=O)n([C@H]2C[C@H](O)[C@@H](CO)O2)cc1F [Floxuridine] (3000 nM) |  |  |  |  |  |  | 80.1% | 22.8% | 97.9% | 42.9% | 44.8% | 71.8% |  |  |  |  | 
CS(=O)(=O)CCNCc1ccc(-c2ccc3ncnc(Nc4ccc(OCc5cccc(F)c5)c(Cl)c4)c3c2)o1 [Lapatinib] (10000 nM) |  |  |  |  |  |  |  |  |  |  |  |  | 90% and 94.5% | 117% and 99.2% | 30% and 39.3% | 60.4% and 65.6% | 20.9% and 28.7%
Cn1c(=O)c(F)c(Nc2ccc(I)cc2F)c2c(=O)n(C[C@@H](O)CO)cnc21 [TAK-733] (300 nM) |  |  |  |  |  |  | 63.6% | 76.7% | 0.88% | 53.5% | 77.9% | 70.8% |  |  |  |  | 
CS(=O)(=O)OCCCCOS(C)(=O)=O [Busulfan] (30000 nM) |  |  |  |  |  |  | 102% | 100% | 91% | 96.5% | 107% | 117% |  |  |  |  | 
COC1=C2C[C@@H](C)C[C@H](OC)[C@H](O)[C@@H](C)/C=C(\C)[C@H](OC(N)=O)[C@@H](OC)/C=C\C=C(/C)C(=O)NC(=CC1=O)C2=O [Geldanamycin] (3000 nM) |  |  |  |  |  |  | 16.7% | 8.15% | -0.3% | 11.6% | 10.8% | 8.03% |  |  |  |  | 
COc1ncc(-c2ccc3nccc(-c4ccnnc4)c3c2)cc1NS(=O)(=O)c1ccc(F)cc1F (300 nM) |  |  |  |  |  |  | 21.2% | 6.4% | 37.8% | 17.9% | 6.61% | 4.39% |  |  |  |  | 
Cn1cnc2c(F)c(Nc3ccc(Br)cc3F)c(C(=O)NOCCO)cc21 [MEK-162] (300 nM) |  |  |  |  |  |  | 95.6% | 90% | 4.15% | 86.7% | 87.1% | 136% |  |  |  |  | 
COc1c(C)cnc(Cn2cnc3c(Cl)nc(N)nc32)c1C [BIIB021] (3000 nM) |  |  |  |  |  |  | 33% | 10.2% | -0.3% | 22.9% | 17% | 6.99% |  |  |  |  | 
O=P(O)(NCCCl)NCCCl [Ifosfamide mustard] (3000 nM) |  |  |  |  |  |  | 106% | 108% | 104% | 96.5% | 100% | 114% |  |  |  |  | 
CC(=O)O[C@H]1C(=O)[C@@]2(C)[C@H]([C@H](OC(=O)c3ccccc3)[C@]3(O)C[C@H](OC(=O)[C@H](O)[C@@H](NC(=O)c4ccccc4)c4ccccc4)C(C)=C1C3(C)C)[C@]1(OC(C)=O)CO[C@@H]1C[C@@H]2O [Paclitaxel] (300 nM) |  |  |  |  |  |  | 26.6% | 20.6% | 16.9% | 25.5% | 16.1% | 24.7% |  |  |  |  | 
CC(C)C[C@H](NC(=O)[C@H](Cc1ccccc1)NC(=O)c1cnccn1)B(O)O [Bortezomib] (300 nM) |  |  |  |  |  |  | 1.48% | 1.35% | 0.52% | 2.25% | 9.74% | 19.3% |  |  |  |  | 
CCOc1cc2ncc(C#N)c(Nc3ccc(OCc4ccccn4)c(Cl)c3)c2cc1NC(=O)/C=C/CN(C)C [Neratinib] (300 nM) |  |  |  |  |  |  | 122% | 88% | 87.2% | 121% | 101% | 79.9% |  |  |  |  | 
COc1cccc2c1C(=O)c1c(O)c3c(c(O)c1C2=O)C[C@@](O)(C(C)=O)C[C@@H]3O[C@H]1C[C@H](N)[C@H](O)[C@H](C)O1 [Daunorubicin] (300 nM) |  |  |  |  |  |  | 52.7% | 31.2% | 33.6% | 53.8% | 48.7% | 76.1% |  |  |  |  | 
